Assays:
[1] = test system: synovial tissues of ankle and knee joints; experiment: Staining of ankle and knee joints in rheumatoid arthritis mice (FLS and immune cell proliferation); assay type: in vivo, mouse
Mmp13 = Mmp13 expression in IL-1β-treated chondrocytes (qRT-PCR, Western blotting); assay type: cell-based, mouse; conditions: 5 ng/ml of IL-1β, 0 to 250 μM, 24 hrs; concentration-dependent
Procedure: IL-1β is a representative inflammatory cytokine that decreases Col2a1 essential for cartilage formation in chondrocytes and also promotes articular inflammation and cartilage tissue destruction. Chondrocytes were treated with 5 ng/ml of IL-1β by time, and then qRT-PCR was performed using conditions and primers of the following Table 1 according to the method of Example 2-1 to examine inhibition of Mmp3 and Mmp13 expression.
Secretory proteins such as Mmp3 and Mmp13 were allowed to react at 0° C. for 20 min after reacting 900 μl of serum-free medium (conditioned medium) with 100 μl of trichloroacetic acid (TCA). Next, a supernatant was discarded by centrifugation at 12,000 rpm and 4° C. for 10 min, and then reacted with 500 μl of 100% cold acetone at […] for 1 hr. The sample reacting with 100% acetone was centrifuged to discard a supernatant, and proteins were finally precipitated and detected. Western blotting was performed using anti-Mmp3 antibody (Abcam) and anti-Mmp13 antibody (Abcam), and thickness and concentration of Western blot bands were measured by a computer program and relative values thereof were determined by densitometry.

chondrocytes = experiment: Cytotoxicity of sialyllactose on chondrocytes (EZ-Cytox cell viability assay); assay type: cell-based, mouse; conditions: 0 μM, 10 μM, 50 μM, 100 μM, or 250 μM, 24 hrs
Procedure: Chondrocytes were obtained from cartilage tissues derived from femoral heads, femoral condyles, and tibial plateaus of normal mouse at 5 days after birth. The obtained chondrocytes were cultured in DMEM medium (Gibco, USA) containing 10% (v/v) fetal bovine serum (Gibco, USA), 50 μg/ml of streptomycin (Sigma-Aldrich, USA) and 50 unit/ml of penicillin (Sigma-Aldrich, USA).
In order to confirm that 3′- or 6′-sialyllactose has no cytotoxicity on chondrocytes, chondrocytes were cultured in a 96-well culture plate at a density of 9×10^3 cells/well, and then treated with 3′- or 6′-sialyllactose (Genechem Inc., Daejeon, Korea) at a concentration of 0 μM, 10 μM, 50 μM, 100 μM, or 250 μM, followed by incubation in a 5% CO2 incubator at 37° C. for 24 hrs. Cytotoxicity of 3′- or 6′-sialyllactose on chondrocytes was confirmed by measuring absorbance at 450 nm using an EZ-Cytox Cell viability assay kit (DoGen, Korea).

Sox-9 = Sox-9 reporter gene luciferase activity in chondrocytes; assay type: cell-based, mouse; conditions: co-treated with 5 ng/ml IL-1β and 0 to 250 μM for 24 hrs
Procedure: A Sox-9 reporter gene was prepared by inserting 48-bp Sox9 binding site in the first intron of human Col2a1 gene into the upstream of SV40 promoter in pGL3 vector (Zhou G et al., J Biol Chem 1998, 12, 14989-97).
1 μg of the Sox-9 reporter gene was transfected into chondrocytes using lipofectamine 2000 (Invitrogen) for 3 hrs. The transfected cells were co-treated with 5 ng/ml interleukin 1 beta (IL-1β) and 0 μM, 10 μM, 50 μM, 100 μM, or 250 μM of 3′- or 6′-sialyllactose for 24 hrs, and then chondrocytes were recovered to examine Sox-9 activity by luciferase activity.

human RA-FLS = experiment: Chemokine, pro-inflammatory cytokine and COX2 expression in stimulated human RA-FLS; assay type: cell-based; conditions: IL-1β-, IL-6-, IL-17-, and TNF-α-stimulated human RA-FLS; 100 μM or 250 μM, 24 hrs
Procedure: Anti-chemokine and anti-inflammatory effects of 3′-sialyllactose were examined. First, purity of mouse FLS was examined by FACS analysis, and then no effects of 3′-sialyllactose on FLS proliferation and cytotoxicity were examined by WST-1 assay (see FIGS. 14A-A to 14A-C). […] Therefore, in a subsequent in vitro experiment, 3′-sialyllactose was used at a concentration of 0 μM to 250 μM. In order to examine effects of 3′-sialyllactose on IL-1β-, IL-6-, IL-17-, and TNF-α-induced chemokines (e.g., CCL2, CCL5, CCL7, CXCL1, CXCL2, and CXCL5), pro-inflammatory cytokines (IL-1, IL-6, and TNF-α), and COX2 expression, IL-1β-, IL-6-, IL-17-, and TNF-α-stimulated human RA-FLS and mouse FLS were treated with 3′-sialyllactose (100 μM or 250 μM) for 24 hrs.

[2] = test system: type II collagen (Col2a1); experiment: Col2a1 expression in chondrocytes (qRT-PCR, Western blotting); assay type: cell-based, mouse
Procedure: In order to examine effects of 3′- or 6′-sialyllactose on cartilage formation and regeneration, the chondrocytes obtained in Example 1 were incubated for 36 hrs and then treated with 3′- or 6′-sialyllactose at a concentration of 0 μM, 10 μM, 50 μM, 100 μM, or 250 μM, followed by further incubation for 36 hrs.
Next, in order to perform qRT-PCR, RNA was extracted from the chondrocytes using a TRI reagent (Molecular Research Center Inc.), and cDNA obtained by reverse transcription of RNA was amplified by PCR using primers of SEQ ID NOS: 1 and 2 under condition of annealing temperature of 55° C. to examine expression of type II collagen (Col2a1, 173 bp) which is essential for cartilage formation. As a control group, Gapdh (450 bp, annealing temperature of 58° C.) was examined by using primers of SEQ ID NOS: 3 and 4.
Further, a whole cell lysate was extracted from the chondrocytes using a lysis buffer (150 mM NaCl, 1% NP-40, 50 mM Tris, 5 mM NaF) containing protease and phosphatase inhibitor cocktails (Roche), and Col2a1 expression in the cells was examined. Western blotting was performed using anti-Col2a1 antibody (Millipore) and anti-Erk antibody (Cell signaling), and thickness and concentration of Western blot bands were measured by a computer program and relative values thereof were determined by densitometry (FIGS. 4A and 4B).
IL-1β is a representative inflammatory cytokine inhibiting Col2a1 expression in chondrocytes. Chondrocytes were incubated for 36 hrs, and then treated with 5 ng/ml of IL-1β (GeneScript, USA) for 24 hrs to confirm that Col2a1 expression was decreased by IL-1β.
In order to examine whether the decreased Col2a1 expression is increased again in chondrocytes by 3′- or 6′-sialyllactose, qRT-PCR and Western blotting were performed in the same manner as in Example 2-1.

For `CC(=O)N[C@H]1C([C@H](O)[C@H](O)CO)O[C@@](O[C@@H]2C(O)[C@H](O[C@@H]3C(CO)OC(O)C(O)[C@H]3O)OC(CO)[C@@H]2O)(C(=O)[O-])C[C@H]1O.[Na+]` (stereo partly shown) [3′-sialyllactose], the “proliferation of macrophages by rheumatoid arthritis” value ([1]; ankle and knee synovial tissue, anti-CD68 staining) was “significantly decreased”, the “proliferation of FLS by rheumatoid arthritis” value ([1]; ankle and knee synovial tissue, anti-CD90.2 staining) was “significantly decreased” and the “proliferation of neutrophils by rheumatoid arthritis” value ([1]; ankle and knee synovial tissue, elastase staining) was “significantly decreased”. For the same compound, the “synovial hyperplasia and infiltration of mononuclear cells into the ankle and knee joints” value ([1]; hematoxylin and Safranin-O staining) was “inhibit”, the “Mmp13 expression increased by IL-1β in chondrocytes” value (Mmp13) was “decreased” and the cytotoxicity on chondrocytes (chondrocytes) was “did not show cytotoxicity”. The “Sox-9 activity decreased by IL-1β” value (Sox-9) was “restored”, the “expression levels of chemokines, pro-inflammatory cytokines, and COX2” value (human RA-FLS) was “remarkably decreased” and the “Col2a1 expression in chondrocytes” value ([2]; 0 to 250 μM, 36 hrs) was “increased”. For the same compound, the “Col2a1 expression suppressed by IL-1β in chondrocytes” value ([2]; 5 ng/ml of IL-1β) was “gradually increased”.

Reference: patent publication US11672815B2, “Composition for inhibiting immune cell proliferation comprising sialyllactose or derivative thereof and method thereof” (CUPIONE CO., LTD., priority 2017, dated 2023)
